# Laboratory results reported in patent US20090012045A1, “Methods of Treating Cell Proliferative Disorders” (RIGEL PHARMACEUTICALS, INC., priority 2007, published 2009).
# Columns and labels:
# [1] = test system: U251; settings: U251 (CNS Cancer)
# [2] = test system: NCI-H522; settings: NCI-H522 (Non-Small Cell Lung Cancer)
# [3] = test system: EKVX; settings: EKVX (Non-Small Cell Lung Cancer)
# [4] = test system: NCI/ADR-RES; settings: NCI/ADR-RES (Breast Cancer)
# [5] = test system: HCT-15; settings: HCT-15 (Colon Cancer)
# [6] = test system: HCC-2998; settings: HCC-2998 (Colon Cancer)
# [7] = test system: MDA-MB-435; settings: MDA-MB-435 (Breast Cancer)
# [8] = test system: K-562; settings: K-562 (Leukemia)
# [9] = test system: PC-3; experiment: in vitro antiproliferation assay, Prostate Cancer; settings: PC-3 (Prostate Cancer)
# [10] = test system: SNB-75; settings: SNB-75 (CNS Cancer)
# [11] = test system: OVCAR-8; settings: OVCAR-8 (Ovarian Cancer)
# [12] = test system: SF-539; settings: SF-539 (CNS Cancer)
# [13] = test system: SK-MEL-5; settings: SK-MEL-5 (Melanoma)
# [14] = test system: SNB-19; settings: SNB-19 (CNS Cancer)
# [15] = test system: RXF 393; settings: RXF 393 (Renal Cancer)
# [16] = test system: SK-MEL-28; settings: SK-MEL-28 (Melanoma)
# [17] = test system: HOP-92; settings: HOP-92 (Non-Small Cell Lung Cancer)
# [18] = test system: MALME-3M; settings: MALME-3M (Melanoma)
# [19] = test system: UACC-257; settings: UACC-257 (Melanoma)
# [20] = test system: OVCAR-5; settings: OVCAR-5 (Ovarian Cancer)
# [21] = test system: OVCAR-3; settings: OVCAR-3 (Ovarian Cancer)
# [22] = test system: A498; settings: A498 (Renal Cancer)
# [23] = test system: HOP-62; settings: HOP-62 (Non-Small Cell Lung Cancer)
# [24] = test system: ACHN; settings: ACHN (Renal Cancer)
# [25] = test system: CAKI-1; settings: CAKI-1 (Renal Cancer)
# [26] = test system: HT29; settings: HT29 (Colon Cancer)
# [27] = test system: 786-0; settings: 786-0 (Renal Cancer)
# [28] = test system: UACC-62; settings: UACC-62 (Melanoma)
# [29] = test system: BT-549; settings: BT-549 (Breast Cancer)
# [30] = test system: HCT-116; settings: HCT-116 (Colon Cancer)
# [31] = test system: OVCAR-4; settings: OVCAR-4 (Ovarian Cancer)
structure (smiles),measurement,setting,value
"COc1cc(Nc2ncc(F)c(Nc3ccc4c(n3)NC(=O)C(C)(C)O4)n2)cc(OC)c1OC.O=S(=O)(O)c1ccccc1 [Compound 1 (besylate salt), N4-(2,2-Dimethyl-3-oxo-4H-5-pyrid[1,4]oxazin-6-yl)-5-fluoro-N2-(3,4,5-trimethoxyphenyl)-2,4-pyrimidinediamine Benzenesulfonic Acid Salt]",TGI,[1],>1.00E−4
same,CC50,[1]; read-out: LC50,> 100 µM
same,TGI,[2],>1.00E−4
same,CC50,[2]; read-out: LC50,> 100 µM
same,GI50,[3],1.66 µM
same,TGI,[3],>1.00E−4
same,CC50,[3]; read-out: LC50,> 100 µM
same,GI50,[4],> 100 µM
same,TGI,[4],>1.00E−4
same,CC50,[4]; read-out: LC50,> 100 µM
same,TGI,[5],>1.00E−4
same,CC50,[5]; read-out: LC50,> 100 µM
same,GI50,[6],> 100 µM
same,TGI,[6],>1.00E−4
same,CC50,[6]; read-out: LC50,> 100 µM
same,GI50,[7],3.62 µM
same,TGI,[7],>1.00E−4
same,CC50,[7]; read-out: LC50,> 100 µM
same,GI50,[8],> 100 µM
same,TGI,[8],>1.00E−4
same,CC50,[8]; read-out: LC50,> 100 µM
same,GI50,[9],3.07 µM
same,TGI,[9],>1.00E−4
same,CC50,[9]; read-out: LC50,> 100 µM
same,GI50,[10],0.871 µM
same,TGI,[10],>1.00E−4
same,CC50,[10]; read-out: LC50,> 100 µM
same,GI50,[11],> 100 µM
same,TGI,[11],>1.00E−4
same,CC50,[11]; read-out: LC50,> 100 µM
same,GI50,[12],0.605 µM
same,CC50,[12]; read-out: LC50,> 100 µM
same,GI50,[13],> 100 µM
same,TGI,[13],>1.00E−4
same,CC50,[13]; read-out: LC50,> 100 µM
same,GI50,[14],> 100 µM
same,TGI,[14],>1.00E−4
same,CC50,[14]; read-out: LC50,> 100 µM
same,GI50,[15],0.196 µM
same,TGI,[15],7.74E−7
same,CC50,[15]; read-out: LC50,> 100 µM
same,GI50,[16],> 100 µM
same,TGI,[16],>1.00E−4
same,CC50,[16]; read-out: LC50,> 100 µM
same,GI50,[17],0.41 µM
same,CC50,[17]; read-out: LC50,> 100 µM
same,GI50,[18],> 100 µM
same,TGI,[18],>1.00E−4
same,CC50,[18]; read-out: LC50,> 100 µM
same,GI50,[19],> 100 µM
same,TGI,[19],>1.00E−4
same,CC50,[19]; read-out: LC50,> 100 µM
same,GI50,[20],> 100 µM
same,TGI,[20],>1.00E−4
same,CC50,[20]; read-out: LC50,> 100 µM
same,GI50,[21],> 100 µM
same,TGI,[21],>1.00E−4
same,CC50,[21]; read-out: LC50,> 100 µM
same,GI50,[22],0.36 µM
same,CC50,[22]; read-out: LC50,> 100 µM
same,GI50,[23],0.537 µM
same,TGI,[23],>1.00E−4
same,CC50,[23]; read-out: LC50,> 100 µM
same,GI50,[24],1.24 µM
same,TGI,[24],>1.00E−4
same,CC50,[24]; read-out: LC50,> 100 µM
same,GI50,[25],0.0515 µM
same,TGI,[25],2.44E−6
same,CC50,[25]; read-out: LC50,> 100 µM
same,GI50,[26],2.19 µM
same,TGI,[26],>1.00E−4
same,CC50,[26]; read-out: LC50,> 100 µM
same,GI50,[27],0.873 µM
same,TGI,[27],>1.00E−4
same,CC50,[27]; read-out: LC50,> 100 µM
same,TGI,[28],>1.00E−4
same,CC50,[28]; read-out: LC50,> 100 µM
same,GI50,[29],2.43 µM
same,TGI,[29],>1.00E−4
same,CC50,[29]; read-out: LC50,> 100 µM
same,TGI,[30],>1.00E−4
same,CC50,[30]; read-out: LC50,> 100 µM
same,GI50,[31],> 100 µM
same,TGI,[31],>1.00E−4
same,CC50,[31]; read-out: LC50,> 100 µM
